Test results published in US12612394B2, “Herbicidal malonamides” (BASF SE, priority 2020, dated 2026).

Assays:
ECHCG = assay: greenhouse experiment, pre-emergence treatment; type: in vivo, Echinocloa crus-galli; conditions: application rate 1,000 kg/ha, pre-emergence method
From the text: (§1) The culture containers used were plastic flowerpots containing loamy sand with approximately 3.0% of humus as the substrate. The seeds of the test plants were sown separately for each species.
(§2) For the pre-emergence treatment, the active ingredients, which had been suspended or emulsified in water, were applied directly after sowing by means of finely distributing nozzles. The containers were irrigated gently to promote germination and growth and subsequently covered with transparent plastic hoods until the test plants had rooted. This cover caused uniform germination of the test plants, unless this had been impaired by the active ingredients. For the post-emergence treatment, the test plants were first grown to a height of 3 to 15 cm, depending on the plant habit, and only then treated with the active ingredients which had been suspended or emulsified in water. For this purpose, the test plants were either sown directly and grown in the same containers, or they were first grown separately as seedlings and transplanted into the test containers a few days prior to treatment.
(§3) Depending on the species, the test plants were kept at 10-25° C. or 20-35° C., respectively. The test period extended over 2 to 4 weeks. During this time, the test plants were tended, and their response to the individual treatments was evaluated.
(§4) Evaluation was carried out using a scale from 0 to 100. […]

APESV = assay: greenhouse experiment, post-emergence treatment; type: in vivo, Apera spica-venti; conditions: application rate 0.500 kg/ha, post-emergence method
From the text: as §1, §2, §3, §4

ABUTH = assay: greenhouse experiment, pre-emergence treatment; type: in vivo, Abutilon theophrasti; conditions: application rate 0.125 kg/ha, pre-emergence method
From the text: as §1, §2, §3, §4

SETFA = assay: greenhouse experiment, pre-emergence treatment; type: in vivo, Setaria faberi; conditions: pre-emergence method
From the text: as §1, §2, §3, §4

ALOMY = assay: greenhouse experiment, pre-emergence treatment; type: in vivo, Alopercurus myosuroides; conditions: application rate 0.125 kg/ha, pre-emergence method
From the text: as §1, §2, §3, §4

AMARE [1] = assay: greenhouse experiment, post-emergence treatment; type: in vivo, Amaranthus retroflexus; conditions: application rate 0.125 kg/ha, post-emergence method
From the text: as §1, §2, §3, §4

SETVI = assay: greenhouse experiment, post-emergence treatment; type: in vivo, Setaria viridis; conditions: application rate 0.250 kg/ha, post-emergence method
From the text: as §1, §2, §3, §4

AMARE [2] = assay: greenhouse experiment, pre-emergence treatment; type: in vivo, Amaranthus retroflexus; conditions: application rate 1,000 kg/ha, pre-emergence method
From the text: as §1, §2, §3, §4

`COC(C(=O)Nc1cc(Cl)cc(Cl)c1)C(=O)NC1CO[C@@H](C(=O)O)C1` (stereo in doubt) [I.60, cis-4-[[3-(3,5-dichloroanilino)-2-methoxy-3-oxo-propanoyl]amino]tetrahydrofuran-2-carboxylate] was tested, and the “herbicidal activity against ECHCG” value (ECHCG) was “good (A good herbicidal activity is given at values of 70 to 90)”.
In the case of `COC(=O)CC(NC(=O)C(OC)C(=O)Nc1cc(Cl)cc(Cl)c1)C(F)(F)F` (stereo not shown) [I.42], the “herbicidal activity against APESV” value (APESV) is reported as “good (A good herbicidal activity is given at values of 70 to 90)”.
`COC(C(=O)Nc1cc(Cl)cc(Cl)c1)C(=O)N[C@H]1C=C[C@@H](C(=O)OC2CC2)C1` (relative stereo) [I.185] was tested, and the “herbicidal activity against ABUTH” value (ABUTH) was “very good (a very good herbicidal activity is given at values of 90 to 100)”.
With `COC(C(=O)Nc1cc(Cl)cc(Cl)c1)C(=O)N[C@H]1C=C[C@@H](C(=O)OC(C)C)C1` (stereo partly shown) [I.159] the “herbicidal activity against SETFA” value (SETFA; application rate 0.125 kg/ha) was “very good (a very good herbicidal activity is given at values of 90 to 100)” and the “herbicidal activity against ALOMY” value (ALOMY) was “very good (a very good herbicidal activity is given at values of 90 to 100)”.
In the case of `COC(=O)C1C=CC(NC(=O)C(OC(F)F)C(=O)Nc2cc(Cl)cc(Cl)c2)C1` (stereo not shown) [I.173], the “herbicidal activity against SETFA” value (SETFA; application rate 0.250 kg/ha) is reported as “good (A good herbicidal activity is given at values of 70 to 90)”.
With `COC(=O)[C@@H]1C=C[C@H](NC(=O)C(OC)C(=O)Nc2cccc(OC(F)(F)C(F)F)c2)C1` (stereo partly shown) [I.192] the “herbicidal activity against AMARE” value (AMARE [1]) was “good (A good herbicidal activity is given at values of 70 to 90)”.
In the case of `COC(=O)[C@@H]1C=C[C@H](NC(=O)C(OC)C(=O)Nc2cc(OC)c(C)c(OC)c2)C1` (stereo partly shown) [I.197], the “herbicidal activity against SETVI” value (SETVI) is reported as “good (A good herbicidal activity is given at values of 70 to 90)”.
For `CNC(=O)[C@@H]1C[C@H](NC(=O)C(OC)C(=O)Nc2cc(F)cc(F)c2)CO1` (relative stereo) [I.100], the “herbicidal activity against AMARE” value (AMARE [2]) was “very good (a very good herbicidal activity is given at values of 90 to 100)”.
With `COC(=O)[C@H]1C[C@@H](NC(=O)C(OC)C(=O)Nc2cc(Cl)cc(Cl)c2)CO1` (relative stereo) [I.40, methyl cis-4-[[3-(3,5-dichloroanilino)-2-methoxy-3-oxo-propanoyl]amino]tetrahydrofuran-2-carboxylate] the “herbicidal activity against ECHCG” value (ECHCG) was “very good (a very good herbicidal activity is given at values of 90 to 100)”.
